The values that follow come from US8143422B2, “Benzimidazole derivatives” (Hoffmann-La Roche Inc., priority 2008, dated 2012).

The target in this assay is T1, FXR ligand binding domain (GST-FXR LBD fusion protein) (Homo sapiens, UniProt Q96RI1).
T1 construct: made in house; host or cells: E. coli BL21(pLysS)
T1 sequence (Q96RI1 193-472 isoform Q96RI1-2 limits assumed): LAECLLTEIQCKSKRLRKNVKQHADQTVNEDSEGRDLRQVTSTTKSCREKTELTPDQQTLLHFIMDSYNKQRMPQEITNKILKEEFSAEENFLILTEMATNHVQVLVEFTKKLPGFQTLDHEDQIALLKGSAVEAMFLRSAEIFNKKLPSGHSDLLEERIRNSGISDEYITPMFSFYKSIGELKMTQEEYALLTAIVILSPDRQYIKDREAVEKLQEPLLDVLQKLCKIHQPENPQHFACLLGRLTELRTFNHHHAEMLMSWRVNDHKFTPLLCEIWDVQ
The assay is described as follows: Radioligand binding assay (scintillation proximity, radioligand displacement). The following applies: GST-FXR LBD on SPA beads, 20 nM radioligand, test compound 6×10^−9 M to 2.5×10^−5 M. How it is done: The following tests were carried out in order to determine the activity of the compounds of formula (I). Background information on the binding assay can be found in: Nichols J S et al. “Development of a scintillation proximity assay for peroxisome proliferator-activated receptor gamma ligand binding domain”, (1998) Anal. Biochem. 257: 112-119.
Bacterial and mammalian expression vectors were constructed to produce glutathione-s-transferase (GST) and Gal4 DNA binding domain (GAL) proteins fused to the ligand binding domain (LBD) of human FXR (aa 193-473). To accomplish this, the portions of the sequences encoding the FXR LBD were amplified by polymerase chain reaction (PCR) from a full-length clone by PCR and then subcloned into the plasmid vectors. The final clone was verified by DNA sequence analysis.
The induction, expression, and subsequent purification of GST-LBD fusion protein was performed in E. coli strain BL21(pLysS) cells by standard methods (Current Protocols in Molecular Biology, Wiley Press, ed. Ausubel et al.).
Radioligand Binding Assay
Binding of test substances to the FXR ligand binding domain was assessed in a radioligand displacement assay. The assay was performed in a buffer consisting of 50 mM Hepes, pH 7.4, 10 mM NaCl, 5 mM MgCl2, 0.01% CHAPS. For each reaction well in a 96-well plate, 40 nM of GST-FXR LBD fusion protein was bound to 10 μg glutathione ytrium silicate SPA beads (PharmaciaAmersham) in a final volume of 50 μl by shaking. A radioligand (e.g., 20 nM of 2,N-dicyclohexyl-2-[2-(2,4 dimethoxy-phenyl)-benzoimidazol-1-yl]-acetamide) and test compounds were added, and scintillation proximity counting was performed. All binding assays were performed in 96-well plates and the amount of bound ligand was measured on a Packard TopCount using OptiPlates (Packard). Dose response curves were performed within a range of test compound concentrations from 6×10^−9 M to 2.5×10^−5 M and IC50 values were calculated.

`CO[C@H](c1ccccc1)c1nc2cc(F)c(F)cc2n1[C@@H](C(=O)Nc1ccc(C(=O)O)cc1C)C1CCCCC1` (single isomer, unassigned) [Example 6A] returned an IC50 of 5000 nM.

In turn, `CO[C@H](c1ccccc1)c1nc2cc(F)c(F)cc2n1[C@H](C(=O)Nc1ccc(C(=O)O)cc1)C1CCCCC1` (single isomer, unassigned) [Example 2B] gave an IC50 of 300 nM.

With `CO[C@H](c1ccccc1)c1nc2cc(F)c(F)cc2n1[C@H](C(=O)Nc1ccc(C(=O)O)cc1C)C1CCCCC1` (single isomer, unassigned) [Example 6B], the IC50 came to 60 nM.

For `CO[C@H](c1ccccc1)c1nc2cc(F)c(F)cc2n1[C@H](C(=O)Nc1ccc(C(=O)O)cc1Cl)C1CCCCC1` (single isomer, unassigned) [Example 8B], the IC50 stood at 60 nM.

As to `CO[C@@H](c1ccccc1)c1nc2cc(F)c(F)cc2n1[C@H](C(=O)Nc1ccc(C(=O)O)cc1F)C1CCCCC1` (single isomer, unassigned) [Example 3B], the IC50 was 400 nM.

As for “6-{(R)-2-Cyclohexyl-2-[5,6-difluoro-2-((S)-methoxy-phenyl-methyl)-benzoimidazol-1-yl]-acetylamino}-nicotinic acid [Example 10A]”, the IC50 came to 200 nM.

Compound `CO[C@@H](c1ccccc1)c1nc2cc(F)c(F)cc2n1[C@@H](C(=O)Nc1ccc(C(=O)O)cc1F)C1CCCCC1` (single isomer, unassigned) [Example 3A] came in with an IC50 of 500 nM.

The compound `CO[C@H](c1ccccc1)c1nc2cc(F)c(F)cc2n1[C@H](C(=O)Nc1ccc(C(=O)O)cc1F)C1CCCCC1` (single isomer, unassigned) [Example 4B] gave a half-inhibitory concentration (IC50) of 30 nM.

Take `CO[C@@H](c1ccccc1)c1nc2cc(F)c(F)cc2n1[C@@H](C(=O)Nc1ccc(C(=O)O)cn1)C1CCCCC1` (single isomer, unassigned) [Example 9A]: the IC50 came to 1700 nM.

The compound `CO[C@@H](c1ccccc1)c1nc2cc(F)c(F)cc2n1[C@@H](C(=O)Nc1ccc(C(=O)O)cc1)C1CCCCC1` (single isomer, unassigned) [Example 1A] came in with an IC50 of 1900 nM.

Turning to `CO[C@@H](c1ccccc1)c1nc2cc(F)c(F)cc2n1[C@@H](C(=O)Nc1ccc(C(=O)O)cc1C)C1CCCCC1` (single isomer, unassigned) [Example 5A], the IC50 came out at 300 nM.

The compound `CO[C@@H](c1ccccc1)c1nc2cc(F)c(F)cc2n1[C@@H](C(=O)Nc1ccc(C(=O)O)cc1Cl)C1CCCCC1` (single isomer, unassigned) [Example 7A] showed an IC50 of 300 nM.

`CO[C@@H](c1ccccc1)c1nc2cc(F)c(F)cc2n1[C@H](C(=O)Nc1ccc(C(=O)O)cn1)C1CCCCC1` (single isomer, unassigned) [Example 9B] yielded an IC50 of 2600 nM.

`CO[C@@H](c1ccccc1)c1nc2cc(F)c(F)cc2n1[C@H](C(=O)Nc1ccc(C(=O)O)cc1)C1CCCCC1` (single isomer, unassigned) [Example 1B] gave an IC50 of 1000 nM.

`CO[C@@H](c1ccccc1)c1nc2cc(F)c(F)cc2n1[C@H](C(=O)Nc1ccc(C(=O)O)cc1C)C1CCCCC1` (single isomer, unassigned) [Example 5B] showed an IC50 of 1100 nM.

Take `CO[C@H](c1ccccc1)c1nc2cc(F)ccc2n1C(C(=O)N[C@H]1CC[C@H](C(=O)O)CC1)C1CCCCC1` (stereo partly drawn) [Example 12, trans-4-{2-Cyclohexyl-2-[5-fluoro-2-((R)-methoxy-phenyl-methyl)-benzoimidazol-1-yl]-acetylamino}-cyclohexanecarboxylic acid]: the IC50 came to 6800 nM.

In turn, `CO[C@H](c1ccccc1)c1nc2cc(F)c(F)cc2n1[C@@H](C(=O)Nc1ccc(C(=O)O)cc1Cl)C1CCCCC1` (single isomer, unassigned) [Example 8A] returned an IC50 of 400 nM.

Take `CO[C@H](c1ccccc1)c1nc2cc(F)c(F)cc2n1[C@@H](C(=O)Nc1ccc(C(=O)O)cc1)C1CCCCC1` (single isomer, unassigned) [Example 2A]: the IC50 was determined as 1600 nM.

For the compound `CO[C@H](c1ccccc1)c1nc2cc(F)c(F)cc2n1[C@@H](C(=O)Nc1ccc(C(=O)O)cc1F)C1CCCCC1` (single isomer, unassigned) [Example 4A], the IC50 worked out at 500 nM.

“6-{(S)-2-Cyclohexyl-2-[5,6-difluoro-2-((S)-methoxy-phenyl-methyl)-benzoimidazol-1-yl]-acetylamino}-nicotinic acid [Example 10B]”: the IC50 was found to be 100 nM.

The compound `CO[C@@H](c1ccccc1)c1nc2cc(F)c(F)cc2n1[C@H](C(=O)Nc1ccc(C(=O)O)cc1Cl)C1CCCCC1` (single isomer, unassigned) [Example 7B] displayed a half-inhibitory concentration (IC50) of 20 nM.

Turning to `CO[C@H](c1ccccc1)c1nc2cc(F)ccc2n1C(C(=O)N[C@H]1CC[C@H](CC(=O)O)CC1)C1CCCCC1` (stereo partly drawn) [Example 11, (trans-4-{2-Cyclohexyl-2-[5-fluoro-2-((R)-methoxy-phenyl-methyl)-benzoimidazol-1-yl]-acetylamino}-cyclohexyl)-acetic acid], the half-maximal inhibitory concentration (IC50) is 21000 nM.
